We go through 16 compounds from patent US8822444B2, “Hepatitis C virus inhibitors” (Bristol-Myers Squibb Company, priority 2009, dated 2014).

By EC50 is commonly meant the concentration at which the effect is half-maximal.

Molecules are shown by their SMILES.

In one assay the test system is HCV 1b genotype. In words: HCV Replicon assay. It counts as cell-based. The following applies: HCV 1b genotype replicon; read-out: 1b EC50 Range. The procedure:
An HCV Replicon assay was utilized in the present disclosure, and was prepared, conducted and validated as described in commonly owned PCT/US2006/022197 and in O'Boyle et. al. Antimicrob Agents Chemother. 2005 April; 49(4):1346-53. Assay methods incorporating luciferase reporters have also been used as described (Apath.com).
HCV-neo replicon cells and replicon cells containing mutations in the NS5A region were used to test the currently described family of compounds. The compounds were determined to have more than 10-fold less inhibitory activity on cells containing mutations than wild-type cells. Thus, the compounds of the present disclosure can be effective in inhibiting the function of the HCV NS5A protein and are understood to be as effective in combinations as previously described in application PCT/US2006/022197 and commonly owned WO/04014852. Further, the compounds of the present disclosure can be effective against the HCV 1b genotype. It should also be understood that the compounds of the present disclosure can inhibit multiple genotypes of HCV. […] In one embodiment, compounds of the present disclosure are inhibitory versus 1a, 1b, 2a, 2b, 3a, 4a, and 5a genotypes.
For `COC(=O)N[C@@H](C)C(=O)N1CCC[C@H]1c1nc(C2=CCC(C3CC=C(c4c[nH]c([C@@H]5CCCN5C(=O)[C@H](C)NC(=O)OC)n4)CC3)CC2)c[nH]1` (stereo partly drawn) [QC-2, methyl ((1S)-2-((2S)-2-(4-(4′-(2-((2S)-1-(N-(methoxycarbonyl)-L-alanyl)-2-pyrrolidinyl)-1H-imidazol-4-yl)-1,1′-bi(3-cyclohexen-1-yl)-4-yl)-1H-imidazol-2-yl)-1-pyrrolidinyl)-1-methyl-2-oxoethyl)carbamate], the EC50 lay in the range of 4.57 to 99 nM.
On the same count and under the same terms, the same measure for `CCN(CC)[C@@H](C(=O)N1CCC[C@H]1c1nc(C2=CCC(C3CC=C(c4c[nH]c([C@@H]5CCCN5C(=O)[C@@H](c5ccccc5)N(CC)CC)n4)CC3)CC2)c[nH]1)c1ccccc1` (stereo partly drawn) [QC-3, (1R,1′R)-2,2′-(1,1′-bi(3-cyclohexen-1-yl)-4,4′-diylbis(1H-imidazole-4,2-diyl(2S)-2,1-pyrrolidinediyl))bis(N,N-diethyl-2-oxo-1-phenylethanamine)]: 2 to 4.57 nM; for `COC[C@H](NC(=O)OC)C(=O)N1CCC[C@H]1c1nc(C2=CCC(C3CC=C(c4c[nH]c([C@@H]5CCCN5C(=O)[C@H](COC)NC(=O)OC)n4)CC3)CC2)c[nH]1` (stereo partly drawn) [QC-4, methyl ((1S)-2-((2S)-2-(4-(4′-(2-((2S)-1-(N-(methoxycarbonyl)-O-methyl-L-seryl)-2-pyrrolidinyl)-1H-imidazol-4-yl)-1,1′-bi(3-cyclohexen-1-yl)-4-yl)-1H-imidazol-2-yl)-1-pyrrolidinyl)-1-(methoxymethyl)-2-oxoethyl)carbamate]: 4.57 to 99 nM.
Still for that read-out and setting: then `COC(=O)N[C@H](C(=O)N1CCC[C@H]1c1nc(C2=CCC(C3CC=C(c4c[nH]c([C@@H]5CCCN5C(=O)[C@@H](NC(=O)OC)[C@@H](C)OC)n4)CC3)CC2)c[nH]1)[C@@H](C)OC` (stereo partly drawn) [QC-5, methyl ((1S,2R)-2-methoxy-1-(((2S)-2-(4-(4′-(2-((2S)-1-(N-(methoxycarbonyl)-O-methyl-L-threonyl)-2-pyrrolidinyl)-1H-imidazol-4-yl)-1,1′-bi(3-cyclohexen-1-yl)-4-yl)-1H-imidazol-2-yl)-1-pyrrolidinyl)carbonyl)propyl)carbamate], with 2 to 4.57 nM; and `COC(=O)N[C@@H](C)C(=O)N1CCC[C@H]1c1nc(C2=CCC(c3ccc(-c4c[nH]c([C@@H]5CCCN5C(=O)[C@H](C)NC(=O)OC)n4)cc3)CC2)c[nH]1` (stereo partly drawn) [QC-10, methyl ((1S)-2-((2S)-2-(4-(4-(4-(2-((2S)-1-(N-(methoxycarbonyl)-1-alanyl)-2-pyrrolidinyl)-1H-imidazol-4-yl)-3-cyclohexen-1-yl)phenyl)-1H-imidazol-2-yl)-1-pyrrolidinyl)-1-methyl-2-oxoethyl)carbamate], with 4.57 to 99 nM.

The assay is the same for the next values; noted with them: Hepatitis C virus; HCV 1b genotype replicon; read-out: 1b EC50 (in nM or range).
`COC[C@H](NC(=O)OC)C(=O)N1CCC[C@H]1c1nc(C2CCC(C3CCC(c4c[nH]c([C@@H]5CCCN5C(=O)[C@H](COC)NC(=O)OC)n4)CC3)CC2)c[nH]1` (stereo partly drawn) [QC-7, methyl ((1S)-2-((2S)-2-(4-(4′-(2-((2S)-1-(N-(methoxycarbonyl)-O-methyl-L-seryl)-2-pyrrolidinyl)-1H-imidazol-4-yl)-1,1′-bi(cyclohexyl)-4-yl)-1H-imidazol-2-yl)-1-pyrrolidinyl)-1-(methoxymethyl)-2-oxoethyl)carbamate]: the EC50 came to 17.1 nM.
Same read-out and setting: the same measure for `COC(=O)N[C@H](C(=O)N1CCC[C@H]1c1nc(C2CCC(C3CCC(c4c[nH]c([C@@H]5CCCN5C(=O)[C@@H](NC(=O)OC)[C@@H](C)OC)n4)CC3)CC2)c[nH]1)[C@@H](C)OC` (stereo partly drawn) [QC-8, methyl ((1S,2R)-2-methoxy-1-(((2S)-2-(4-(4′-(2-((2S)-1-(N-(methoxycarbonyl)-O-methyl-L-threonyl)-2-pyrrolidinyl)-1H-imidazol-4-yl)-1,1′-bi(cyclohexyl)-4-yl)-1H-imidazol-2-yl)-1-pyrrolidinyl)carbonyl)propyl)carbamate]: 2.4 nM.

The assay is the same for the next values; noted with them: Hepatitis C virus; HCV 1b genotype replicon; read-out: 1b EC50 Range.
In the case of `CC[C@H](NC(=O)OC)C(=O)N1[C@@H]2C[C@@H]2C[C@H]1c1ncc(-c2ccc(C34CCC(c5cnc([C@@H]6C[C@H]7C[C@H]7N6C(=O)[C@H](CC)NC(=O)OC)[nH]5)(CC3)CC4)cc2)[nH]1` [Example M-6, methyl ((1S)-1-(((1R,3S,5R)-3-(5-(4-(4-(2-((1R,3S,5R)-2-((2S)-2-((methoxycarbonyl)amino)butanoyl)-2-azabicyclo[3.1.0]hex-3-yl)-1H-imidazol-5-yl)bicyclo[2.2.2]oct-1-yl)phenyl)-1H-imidazol-2-yl)-2-azabicyclo[3.1.0]hex-2-yl)carbonyl)propyl)carbamate], the EC50 is 2 to 4.57 nM.
On the same count and under the same terms, then `COC(=O)N[C@@H](C(=O)N1[C@@H]2C[C@@H]2C[C@H]1c1ncc(-c2ccc(C34CCC(c5cnc([C@@H]6C[C@H]7C[C@H]7N6C(=O)[C@H](NC(=O)OC)c6ccccc6)[nH]5)(CC3)CC4)cc2)[nH]1)c1ccccc1` [Example M-7, methyl ((1R)-2-((1R,3S,5R)-3-(5-(4-(4-(2-((1R,3S,5R)-2-((2R)-2-((methoxycarbonyl)amino)-2-phenylacetyl)-2-azabicyclo[3.1.0]hex-3-yl)-1H-imidazol-5-yl)bicyclo[2.2.2]oct-1-yl)phenyl)-1H-imidazol-2-yl)-2-azabicyclo[3.1.0]hex-2-yl)-2-oxo-1-phenylethyl)carbamate], with 2 to 4.57 nM; and `COC(=O)N[C@H](C(=O)N1[C@@H]2C[C@@H]2C[C@H]1c1nc(Cl)c(-c2ccc(C34CCC(c5[nH]c([C@@H]6C[C@H]7C[C@H]7N6C(=O)[C@@H](NC(=O)OC)C(C)C)nc5Cl)(CC3)CC4)cc2)[nH]1)C(C)C` [Example M-8, methyl ((1S)-1-(((1R,3S,5R)-3-(4-chloro-5-(4-(4-(4-chloro-2-((1R,3S,5R)-2-((2S)-2-((methoxycarbonyl)amino)-3-methylbutanoyl)-2-azabicyclo[3.1.0]hex-3-yl)-1H-imidazol-5-yl)bicyclo[2.2.2]oct-1-yl)phenyl)-1H-imidazol-2-yl)-2-azabicyclo[3.1.0]hex-2-yl)carbonyl)-2-methylpropyl)carbamate], with 2 to 4.57 nM.
The same measure, in the same setting: the same measure for `COC(=O)N[C@@H](C)C(=O)N1CCC[C@H]1c1nc(C2CCC(C3CCC(c4c[nH]c([C@@H]5CCCN5C(=O)[C@H](C)NC(=O)OC)n4)CC3)CC2)c[nH]1` (stereo partly drawn) [QC-6, methyl ((1S)-2-((2S)-2-(4-(4′-(2-((2S)-1-(N-(methoxycarbonyl)-L-alanyl)-2-pyrrolidinyl)-1H-imidazol-4-yl)-1,1′-bi(cyclohexyl)-4-yl)-1H-imidazol-2-yl)-1-pyrrolidinyl)-1-methyl-2-oxoethyl)carbamate]: 100 to 999 nM; for `COC[C@H](NC(=O)OC)C(=O)N1CCC[C@H]1c1nc(C2CCC(C3CCC(c4c[nH]c([C@@H]5CCCN5C(=O)[C@H](COC)NC(=O)OC)n4)CC3)CC2)c[nH]1` (stereo partly drawn) [QC-7, methyl ((1S)-2-((2S)-2-(4-(4′-(2-((2S)-1-(N-(methoxycarbonyl)-O-methyl-L-seryl)-2-pyrrolidinyl)-1H-imidazol-4-yl)-1,1′-bi(cyclohexyl)-4-yl)-1H-imidazol-2-yl)-1-pyrrolidinyl)-1-(methoxymethyl)-2-oxoethyl)carbamate]: 1000 to 10000 nM.
Still for that read-out and setting: then `COC(=O)N[C@H](C(=O)N1CCC[C@H]1c1nc(C2CCC(C3CCC(c4c[nH]c([C@@H]5CCCN5C(=O)[C@@H](NC(=O)OC)[C@@H](C)OC)n4)CC3)CC2)c[nH]1)[C@@H](C)OC` (stereo partly drawn) [QC-8, methyl ((1S,2R)-2-methoxy-1-(((2S)-2-(4-(4′-(2-((2S)-1-(N-(methoxycarbonyl)-O-methyl-L-threonyl)-2-pyrrolidinyl)-1H-imidazol-4-yl)-1,1′-bi(cyclohexyl)-4-yl)-1H-imidazol-2-yl)-1-pyrrolidinyl)carbonyl)propyl)carbamate], with 100 to 999 nM; and `COC[C@H](NC(=O)OC)C(=O)N1CCC[C@H]1c1nc(C2=CCC(c3ccc(-c4c[nH]c([C@@H]5CCCN5C(=O)[C@H](COC)NC(=O)OC)n4)cc3)CC2)c[nH]1` (stereo partly drawn) [QC-11, methyl ((1S)-2-((2S)-2-(4-(4-(4-(2-((2S)-1-(N-(methoxycarbonyl)-O-methyl-L-seryl)-2-pyrrolidinyl)-1H-imidazol-4-yl)-3-cyclohexen-1-yl)phenyl)-1H-imidazol-2-yl)-1-pyrrolidinyl)-1-(methoxymethyl)-2-oxoethyl)carbamate], with 4.57 to 99 nM; and `COC(=O)N[C@H](C(=O)N1CCC[C@H]1c1nc(C2=CCC(c3ccc(-c4c[nH]c([C@@H]5CCCN5C(=O)[C@@H](NC(=O)OC)[C@@H](C)OC)n4)cc3)CC2)c[nH]1)[C@@H](C)OC` (stereo partly drawn) [QC-12, methyl ((1S,2R)-2-methoxy-1-(((2S)-2-(4-(4-(4-(2-((2S)-1-(N-(methoxycarbonyl)-O-methyl-L-threonyl)-2-pyrrolidinyl)-1H-imidazol-4-yl)-3-cyclohexen-1-yl)phenyl)-1H-imidazol-2-yl)-1-pyrrolidinyl)carbonyl)propyl)carbamate], with 4.57 to 99 nM.
With `COC(=O)N[C@H](C(=O)N1CCC[C@H]1c1nc(-c2ccc(N3CCC(c4c[nH]c([C@@H]5CCCN5C(=O)[C@@H](NC(=O)OC)C(C)C)n4)CC3)cc2)c[nH]1)C(C)C` [QC-13, methyl ((1S)-1-(((2S)-2-(4-(1-(4-(2-((2S)-1-((2S)-2-((methoxycarbonyl)amino)-3-methylbutanoyl)-2-pyrrolidinyl)-1H-imidazol-4-yl)phenyl)-4-piperidinyl)-1H-imidazol-2-yl)-1-pyrrolidinyl)carbonyl)-2-methylpropyl)carbamate], the EC50 is 4.57 to 99 nM.
With `COC[C@H](NC(=O)OC)C(=O)N1CCC[C@H]1c1nc(-c2ccc(N3CCC(c4c[nH]c([C@@H]5CCCN5C(=O)[C@H](COC)NC(=O)OC)n4)CC3)cc2)c[nH]1` [QC-14, methyl ((1S)-2-((2S)-2-(4-(4-(4-(2-((2S)-1-(N-(methoxycarbonyl)-O-methyl-L-seryl)-2-pyrrolidinyl)-1H-imidazol-4-yl)-1-piperidinyl)phenyl)-1H-imidazol-2-yl)-1-pyrrolidinyl)-1-(methoxymethyl)-2-oxoethyl)carbamate], the EC50 lay within 100 to 999 nM.
On the same count and under the same terms, then `COC(=O)N[C@H](C(=O)N1CCC[C@H]1c1nc(-c2ccc(N3CCC(c4c[nH]c([C@@H]5CCCN5C(=O)[C@@H](NC(=O)OC)C(C)(C)C)n4)CC3)cc2)c[nH]1)C(C)(C)C` [QC-15, methyl ((1S)-1-(((2S)-2-(4-(1-(4-(2-((2S)-1-((2S)-2-((methoxycarbonyl)amino)-3,3-dimethylbutanoyl)-2-pyrrolidinyl)-1H-imidazol-4-yl)phenyl)-4-piperidinyl)-1H-imidazol-2-yl)-1-pyrrolidinyl)carbonyl)-2,2-dimethylpropyl)carbamate], with 4.57 to 99 nM.
